What was measured:
[1] = Particle size, PdI and zeta potential of mRNA-encapsulating LNPs by dynamic light scattering (Experimental Example 2); format: physicochemical
Experimental: An acidic buffer solution (total amount: 1080 µL) of nucleic acid was prepared by weighing 7.2 µg of mRNA solution (0.6 mg/mL) in a 5 mL tube and adding acidic malate buffer (20 mM, pH 3.0).
An acidic buffer solution of nucleic acid and an ethanol solution of lipid were each weighed in a syringe.
The particle size, PdI (Polydispersity Index), and zeta potential of the mRNA-encapsulating LNP prepared by the method of the above-mentioned 1 were measured by a dynamic light scattering method (Zetasizer Nano; Malvern).

[2] = Particle size, PdI and zeta potential of mRNA-encapsulating LNPs by dynamic light scattering (Experimental Example 6); format: physicochemical; conditions: mRNA-encapsulating LNP; for zeta potential (mV): cationic lipid:DOPC:Chol=49:7.5:42.5:1, dispersion in TBS (Tables 8-1, 8-2); for PdI / particle size (nm): cationic lipid:DOPC:Chol=49:7.5:42.5:1, dispersion in TBS, dynamic light scattering (Tables 8-1, 8-2)
Experimental: An acidic buffer solution (total amount: 1300 µL) of nucleic acid was prepared by weighing 6.5 µg of mRNA solution (0.6 mg/mL) in a 5 mL tube and adding acidic citrate buffer (20 mM, pH 5.0).
An acidic buffer solution of nucleic acid and an ethanol solution of lipid were each weighed in a syringe. […] The obtained concentrate was diluted with TBS to a lipid concentration of 2 mM to give a dispersion containing LNP.
The particle size, PdI (Polydispersity Index), and zeta potential of the mRNA-encapsulating LNP prepared by the method of the above-mentioned 1 were measured by a dynamic light scattering method (Zetasizer Nano; Malvern). […]

[3] = system: liver; test: In vivo gene expression, luciferase luminescence in the liver after tail vein administration (Experimental Example 7); conditions: BALB/c mouse, mRNA 0.05 mg/kg
Experimental: LNP encapsulating mRNA that expresses luciferase (cationic lipid:DOPC:Chol:DMG-PEG2k = 52.5:7.5:40:1.5 (molar ratio)) was prepared by the method described in [Experimental Example 6], 1.
(§1) The prepared each mRNA-encapsulating LNP dispersion was administered from the tail vein of BALB/c mouse (male, 5-week-old). The dose of mRNA was set to 0.05 mg per 1 kg body weight of the mouse, and the dose of the mRNA-encapsulating LNP dispersion was set to 10 µL per 1 g body weight of the mouse. After 4.5 hr from the administration of the mRNA-encapsulating LNP dispersion, a PBS solution of D-luciferin potassium was administered into the abdominal cavity of the mouse. The dose of D-luciferin potassium was set to 3 mg per mouse, and the dose of the PBS solution of D-luciferin potassium was set to 200 µL per mouse. After 15 min from the administration of the PBS solution of D-luciferin potassium, the mouse was euthanized, and the liver was isolated. The luminescence in the liver was quantified using an in vivo imaging system (IVIS) with an exposure of 10 sec. The amount of luminescence in the liver was quantified by image analysis using Live Imaging software attached to IVIS. The amount of luminescence (photons/sec) was calculated from the acquired image and used as an index of gene expression activity. The cationic lipids used, the luminescence intensity in the liver, and the relative luminescence intensity (= luminescence intensity in the liver when cationic lipid of Example was used/luminescence intensity in the liver when cationic lipid of Comparative Example was used) are shown in Table 9. For example, "3.94E+09" means "3.94×10^9". […]

[4] = system: liver; test: In vivo gene expression, luciferase luminescence in the liver after tail vein administration (Experimental Example 4); conditions: BALB/c mouse, mRNA 0.05 mg/kg; for amount of luminescence (photons/sec) in liver: tail vein, 4.5 hr after administration, LNP cationic lipid:DOPC:Chol:DMG-PEG2k = 52.5:7.5:40:1.5, prepared as in Experimental Example 2; for relative amount of luminescence: liver luminescence relative to cationic lipid of Comparative Example
Experimental: LNP encapsulating mRNA that expresses luciferase (cationic lipid:DOPC:Chol:DMG-PEG2k = 52.5:7.5:40:1.5 (molar ratio)) was prepared by the method described in [Experimental Example 2], 1.
as §1, with “7-1 to Table 7-3. "E+0a" (a: integer) indicated in Table 7-1 to Table 7-3 means "10^a".” for “9.”

[5] = system: HeLa cells; test: In vitro gene expression in HeLa cells (luciferase mRNA-encapsulating LNP, cumulative luminescence in 24 hr); conditions: for cumulative luciferase luminescence intensity (RLU) in 24 hr: LNP cationic lipid:DOPC:Chol:DMG-PEG2k = 50:10:40:1, mRNA 0.2 µg per dish, E+0a means 10^a; for relative luminescence intensity: cumulative intensity in 24 hr relative to cationic lipid of Comparative Example
Experimental: LNP encapsulating mRNA that expresses luciferase (cationic lipid:DOPC:Chol:DMG-PEG2k = 50:10:40:1 (molar ratio)) was prepared by the method described in [Experimental Example 2], 1.
HeLa cells, which are human cervical cancer cells, were seeded in a 3.5 cm dish at 5.0×10^4 cells/2 mL/Dish 24 hours before transfection. After 24 hr, the medium was changed to a culture medium (D-MEM) containing 0.1 mM D-luciferin. The prepared mRNA-encapsulating LNP was diluted with PBS to an mRNA concentration of about 1 µg/mL. The diluted mRNA-encapsulating LNP solution (about 200 µL, mRNA: 0.2 µg) was added to a 3.5 cm dish, and set in an incubator luminometer KronosDio. The luminescence intensity of luciferase was measured for 2 min every one hour. The cumulative luciferase luminescence intensity in 24 hr was calculated from the obtained time change of expression. […] In Comparative Example, the cationic lipid described in Table 2 was used.

[6] = mRNA-encapsulating LNP, cationic lipid:DOPC:Chol = 50:10:40 (molar ratio) + DMG-PEG2k about 1 mol, Polydispersity Index, dynamic light scattering
[7] = mRNA-encapsulating LNP, cationic lipid:DOPC:Chol = 50:10:40 (molar ratio) + DMG-PEG2k about 1 mol, Zetasizer Nano
[8] = mRNA-encapsulating LNP, cationic lipid:DOPC:Chol = 50:10:40 (molar ratio) + DMG-PEG2k about 1 mol, dynamic light scattering
[9] = mRNA-encapsulating LNP containing the cationic lipid, dispersion in PBS (Table 5-3)
[10] = mRNA-encapsulating LNP containing the cationic lipid, dispersion in PBS, dynamic light scattering (Table 5-3)

Compound	PdI [1, 6]	zeta potential (mV) [1, 7] [mV]	particle size (nm) [1, 8] [nm]	zeta potential (mV) [2] [mV]	PdI [2]	particle size (nm) [2] [nm]	zeta potential (mV) [1, 9] [mV]	PdI [1, 10]	particle size (nm) [1, 10] [nm]	amount of luminescence (photons/sec) in liver ([3]; tail vein, 4.5 hr after administration, LNP cationic lipid:DOPC:Chol:DMG-PEG2k = 52.5:7.5:40:1.5, prepared as in Experimental Example 6) [photons/sec]	relative amount of luminescence ([3]; liver luminescence relative to cationic lipid of Comparative Example)	amount of luminescence (photons/sec) in liver [4] [photons/sec]	relative amount of luminescence [4]	cumulative luciferase luminescence intensity (RLU) in 24 hr [5] [RLU]	relative luminescence intensity [5]
CCCCCC/C=C\COC(=O)CCCC(=O)Oc1ccc(CC(=O)OCCC2CCN(CCSSCCN3CCC(CCOC(=O)Cc4ccc(OC(=O)CCCCCCC/C=C\CCCCCCCC)cc4)CC3)CC2)cc1 [compound 43]	0.072	-3.98	90.46	-5.9	0.17	128.2	–	–	–	–	–	–	–	–	–
CCCCCCC#CCCOC(=O)CCCC(=O)Oc1ccc(CC(=O)OCCC2CCN(CCSSCCN3CCC(CCOC(=O)Cc4ccc(OC(=O)CCCC(=O)Oc5c(C)c(C)c6c(c5C)CCC(C)(CCCC(C)CCCC(C)CCCC(C)C)O6)cc4)CC3)CC2)cc1 (stereo not shown) [compound 150]	0.071	-2.14	94.66	-8.1	0.11	130.2	–	–	–	–	–	–	–	–	–
CCCCCC/C=C\COC(=O)CCCC(=O)Oc1ccc(CC(=O)OCCC2CCN(CCSSCCN3CCC(CCOC(=O)Cc4ccc(OC(=O)CCCC(=O)OC/C=C\CCCCCC)cc4)CC3)CC2)cc1 [compound 41]	0.067	-2.30	123.30	–	–	–	–	–	–	–	–	1.73E+09	1.14	–	–
CCCCCC[C@@H](C/C=C\CCCCCCCC(=O)Oc1ccc(CC(=O)OCCC2CCN(CCSSCCN3CCC(CCOC(=O)Cc4ccc(OC(=O)CCCC(=O)OC[C@H](COC(C)=O)OC(C)=O)cc4)CC3)CC2)cc1)OC(=O)CCCCC [compound 17]	0.061	-5.19	127.90	–	–	–	–	–	–	–	–	3.73E+09	2.45	5.18E+07	2.81
CCCCCCCC/C=C\CCCCCCCC(=O)Oc1ccc(CC(=O)OCCC2CCN(CCSSCCN3CCC(CCOC(=O)Cc4ccc(OC(=O)CCCCCCC/C=C\C[C@H](CCCCCC)OC(C)=O)cc4)CC3)CC2)cc1 [compound 1]	0.070	-3.79	96.63	–	–	–	–	–	–	–	–	3.94E+09	2.59	2.61E+07	1.42
CCCCCCCC/C=C\CCCCCCCC(=O)Oc1ccc(CC(=O)OCCC2CCN(CCSSCCN3CCC(CCOC(=O)Cc4ccc(OC(=O)CCCC(=O)OC[C@H](COC(=O)CCCCCCC)OC(=O)CCCCCCC)cc4)CC3)CC2)cc1 [compound 5]	0.112	-4.68	106.10	–	–	–	–	–	–	–	–	3.76E+09	2.48	4.16E+07	2.25
CCCCCCCC/C=C\CCCCCCCC(=O)Oc1ccc(CC(=O)OCCC2CCN(CCSSCCN3CCC(CCOC(=O)Cc4ccc(OC(=O)CCCC(=O)OC[C@H](COC(=O)CCCCC)OC(=O)CCCCC)cc4)CC3)CC2)cc1 [compound 13]	0.073	-3.63	94.42	–	–	–	–	–	–	–	–	–	–	1.24E+08	6.72
CCCCCCCC/C=C\CCCCCCCC(=O)Oc1ccc(CC(=O)OCCC2CCN(CCSSCCN3CCC(CCOC(=O)Cc4ccc(OC(=O)CCCC(=O)N(CCCCCC)CCCCCC)cc4)CC3)CC2)cc1 [compound 124]	–	–	–	–	–	–	-5.07	0.111	96.63	–	–	5.12E+09	3.37	–	–

Continued, in another order:

PdI [1, 6]	zeta potential (mV) [1, 7] [mV]	particle size (nm) [1, 8] [nm]	zeta potential (mV) [2] [mV]	PdI [2]	particle size (nm) [2] [nm]	zeta potential (mV) [1, 9] [mV]	PdI [1, 10]	particle size (nm) [1, 10] [nm]	Compound	amount of luminescence (photons/sec) in liver ([3]; tail vein, 4.5 hr after administration, LNP cationic lipid:DOPC:Chol:DMG-PEG2k = 52.5:7.5:40:1.5, prepared as in Experimental Example 6) [photons/sec]	relative amount of luminescence ([3]; liver luminescence relative to cationic lipid of Comparative Example)	amount of luminescence (photons/sec) in liver [4] [photons/sec]	relative amount of luminescence [4]	cumulative luciferase luminescence intensity (RLU) in 24 hr [5] [RLU]	relative luminescence intensity [5]
0.059	-6.03	97.44	-6.2	0.15	123.1	–	–	–	CCCCCCC#CCCOC(=O)CCCC(=O)Oc1ccc(CC(=O)OCCC2CCN(CCSSCCN3CCC(CCOC(=O)Cc4ccc(OC(=O)CCCCCCC/C=C\CCCCCCCC)cc4)CC3)CC2)cc1 [compound 149]	–	–	–	–	–	–
0.063	-4.31	92.96	-7.4	0.15	133.6	–	–	–	CCCCCCC#CCCOC(=O)CCCC(=O)Oc1ccc(CC(=O)OCCC2CCN(CCSSCCN3CCC(CCOC(=O)Cc4ccc(OC(=O)CCCCCCCC(=O)OC(CCCCCCCC)CCCCCCCC)cc4)CC3)CC2)cc1 [compound 148]	–	–	–	–	–	–
–	–	–	-4.83	0.035	126.1	-4.4	0.070	99.5	CCCCCCC(C/C=C\CCCCCCCC(=O)Oc1ccc(CC(=O)OCCC2CCN(CCSSCCN3CCC(CCOC(=O)Cc4ccc(OC(=O)CCCCCCC/C=C\CC(CCCCCC)OC(=O)c5ccc(OCC)c(OCC)c5)cc4)CC3)CC2)cc1)OC(=O)c1ccc(OCC)c(OCC)c1 (stereo not shown) [compound 173]	9.37E+09	4.57	–	–	–	–
–	–	–	-3.79	0.082	122.1	-2.39	0.034	83.1	CCCCCCCC/C=C\CCCCCCCC(=O)Oc1ccc(CC(=O)OCCC2CCN(CCSSCCN3CCC(CCOC(=O)Cc4ccc(OC(=O)CCCCCCCCCCC(CCCCCC)OC(=O)CCCCCCC)cc4)CC3)CC2)cc1 (stereo not shown) [compound 145]	–	–	6.65E+09	4.37	–	–

Reference: EP4692059A1, “CATIONIC LIPID HAVING DISULFIDE BOND” (Tohoku University, priority 2023, dated 2024)
